# US7271160B2, “Methods and compositions for degradation and/or inhibition of HER-family tyrosine kinases” (Sloan-Kettering Institute for Cancer Research, priority 1999, dated 2007)
# “Also recorded” adds a separate entry of the source.
# Assays:
# MCF-7 cells = assay: MCF-7 cell growth inhibition (cell counting); type: cell-based; conditions: Homo sapiens, MCF7, 96 h; MCF-7 cells treated for four days; 50% growth inhibition vs vehicle; average of three experiments; read-out: IC50 (growth inh.)
# Procedure: (§1) The human breast cancer cell lines MCF-7 and SKBR-3 were obtained from ATCC (Rockville, Md.), and maintained in DME/F12 (1:1) supplemented with 10% heat-inactivated fetal bovine serum (Gemini Bioproducts), 2 mM glutamine, and 50 units/ml each of penicillin and streptomycin, in a humidified 5% CO2/air atmosphere at 37° C.
# For cell growth experiments, cells were plated in 6-well tissue-culture plates (Corning) at 20,000 cells/well. Two days after plating, cells were treated with different concentrations of drugs or the vehicle DMSO (0.1%). MCF-7 cells were treated for four days; medium with the appropriate drug or vehicle was changed every 2 days; cells were trypsinized, collected and counted on a Coulter counter; IC50 for cell growth is designated as the amount of each drug needed to inhibit MCF-7 growth by 50% compared to the control vehicle.
# HER2 [1] = assay: Induction of HER2 degradation in MCF-7 cells (immunoblotting); type: cell-based, human; conditions: for IC50: 24-hr treatment, amount of drug needed to degrade 50% of the protein vs control, average of three experiments, read-out: IC50 (HER-2); for specificity/selectivity for HER-2 over Raf-1: compared to GM
# Procedure: (§2) After exposure, cells were washed twice with ice-cold phosphate-buffered saline (PBS), collected by scraping and transferred into microcentrifuge tubes. For immunoblotting (HER2, Raf-1, ER), cells were lysed with SDS lysis buffer (50 mM Tris-HCl, pH 7.5, 2% SDS, 10% glycerol, and 1 mM DTT), boiled for 10 min, and sonicated briefly; for immanoprecipitation (IGF-IR), cells were lysed with NP40 lysis buffer (50 mM Tris-HCl, pH 7.5, 1% Nonidet P-40, 150 mM NaCl, 1 mM Na3VO4, 40 mM NaF, 1 mM phenylmethylsulfonyl fluoride (PMSF) and 10 μg/ml each of aprotinin, leupeptin and soybean trypsin inhibitor) for 20 min at 4° C. Cell lysates were cleared by centrifuging at 14,000×g for 15 min at 4° C. in a microcentrifuge; the supernatants were collected as the experimental samples. Protein concentration in each sample was determined using the BCA kit (Pierce) according to the manufacture's instructions. For detecting IGF-IR, samples were immunoprecipitated with anti-IGF-IR antibody. Immunocomplexes were collected on protein A-Sepharose beads (Pharmacia), washed three tires with the lysis buffer. Samples were subjected to SDS-PAGE, electrotransferred to nitrocellulose membranes, detected using the ECL kit (Amersham) according to the manufacturer's protocol, and quantitated using the Gel Doc 1000 (Bio-Rad).
# (§3) Numerical results for IC50 for HER-2, Raf-1 and cell growth are summarized in Table 1, with each number representing the average of three different experiments.
# Raf-1 [2] = assay: Induction of Raf-1 degradation in MCF-7 cells (immunoblotting); type: cell-based, human; conditions: for IC50: 24-hr treatment, amount of drug needed to degrade 50% of the protein vs control, average of three experiments
# Procedure: as §2, §3
# HER2 [3] = assay: Immunofluorescence of HER2 in MCF-7 cells; type: cell-based, human; conditions: vs DMSO control
# Procedure: (§4) MCF-7 cells were grown and treated on fibronectin-coated coverslips placed in multiwell plates. Cells were fixed for 20 min at −20° C. in 100% methanol, rehydrated in PBS for 10 min at room temperature and blocked for 30 min at 37° C. in a blocking solution consisting of 2% bovine serum albumin (BSA), 10% normal goat serum and 0.05% Tween-20 in PBS. HER2 and Raf-1 were immunodetected with antibodies from Santa Cruz (SC284 and SC133, respectively); IGF-IR, an antibody from Calbiochem Oncogene Science (Abl). Slides were incubated with a […] of the primary antibody in blocking buffer for 1 hr at room temperature, followed by an incubation with Alexa 546-coupled goat anti-rabbit lgG secondary antibody (A-11010, Molecular Probes) at a […] in blocking buffer, or fluoresceine isothiocyanate-coupled goat anti-mouse IgG (F276, Molecular Probes) at a […]. […] DNA was stained with bisbenzimide, which was included in the secondary antibody solution (3 μg/ml final concentration. Coverslips were mounted on glass slides using Vectashield (Vector), to prevent quenching of fluorescence. Immunofluorescence was detected with a Zeiss epifluorescence microscope, at 40× and 100×, using appropriate filters for detection of rhodamine and bisbenzimide, and via confocal microscopy.
# 32D cells = assay: 32D cell growth (HER-kinase negative cells, daily cell counts); type: cell-based, murine; conditions: 32D cells lacking HER-kinases; various concentrations, counted daily for three days
# Procedure: Murine hematopoietic cell line 32D, which lacks HER-kinases, was kindly provided by Dr Yosef Yarden (The Weizmann Institute of Science, Israel), and maintained in RPMI-1640 supplemented with 10% heat-inactivated FBS, 2 nm interleukin 3 (R&D systems), 2 mM glutamine, and 50 units/ml each of penicillin and streptomycin.
# Raf-1 [4] = assay: Immunofluorescence of Raf-1 in MCF-7 cells; type: cell-based, human; conditions: vs DMSO control
# Procedure: as §4
# IGF-I receptor = IGF-I receptor level in MCF-7 cells (immunoprecipitation/immunoblotting time course); type: cell-based, human; conditions: 1 μM, 3 to 24 hours
# Procedure: as §2, with “For immunoblotting (HER2, Raf-1, ER), cells were lysed with SDS lysis buffer (50 mM Tris-HCl, pH 7.5, 2% SDS, 10% glycerol, and 1 mM DTT), boiled for 10 min, and sonicated briefly; for immanoprecipitation (IGF-IR), cells were lysed with NP40 lysis buffer (50 mM Tris-HCl, pH 7.5, 1% Nonidet P-40, 150 mM NaCl, 1 mM Na3VO4, 40 mM NaF, 1 mM phenylmethylsulfonyl fluoride (PMSF) and 10 μg/ml each of aprotinin, leupeptin and soybean trypsin inhibitor) for 20 min at 4° C.” left out
# estrogen receptor = assay: Estrogen receptor level in MCF-7 cells (immunoblotting time course); type: cell-based, human; conditions: 1 μM, 3 to 24 hours
# HER-2 and Raf-1 = assay: Varying concentration and treatment pattern, HER-2 and Raf-1 levels (Example 3); type: cell-based
# SKBR3 = SKBR3 breast cancer cell sensitivity; type: cell-based, human; conditions: SKBR3, HER2 highly overexpressed
# Procedure: as §1
# IGF-IR = assay: Immunofluorescence of IGF-IR in MCF-7 cells; type: cell-based, human; conditions: vs DMSO control
# Procedure: as §4
SMILES,IC50 (MCF-7 cells),IC50 (HER2 [1]),IC50 (Raf-1 [2]),activity against HER2 (in words) (HER2 [1]),specificity/selectivity for HER-2 over Raf-1 (HER2 [1]),activity against Raf-1 (in words) (Raf-1 [2]),other results
COC1C=CC=C(C)C(=O)NC2=CC(=O)C(NCCCCCCCCCNC3=C4CC(C)CC(OC)C(O)C(C)C=C(C)C(OC(N)=O)C(OC)C=CC=C(C)C(=O)NC(=CC3=O)C4=O)=C(CC(C)CC(OC)C(O)C(C)C=C(C)C1OC(N)=O)C2=O (stereo not drawn),700 nM,500 nM,3800 nM,,,,
COC1C=CC=C(C)C(=O)NC2=CC(=O)C(NCCCCN)=C(CC(C)CC(OC)C(O)C(C)C=C(C)C1OC(N)=O)C2=O (stereo not drawn) [ButylaminoGM],,55 nM,,modestly weaker than GM,not selective,modestly weaker than GM,
COC1C=CC=C(C)C(=O)NC2=CC(=O)C(NCCCCNC3=C4CC(C)CC(OC)C(O)C(C)C=C(C)C(OC(N)=O)C(OC)C=CC=C(C)C(=O)NC(=CC3=O)C4=O)=C(CC(C)CC(OC)C(O)C(C)C=C(C)C1OC(N)=O)C2=O (stereo not drawn) [GMD-4c],100 nM,60 nM,3200 nM,,greatest selectivity of the compounds tested,,"anti-HER2 staining (immunofluorescence) (HER2 [3]): significant reduction in fluorescence levels; effect on growth of 32D cells (32D cells): does not appreciably affect its growth; also recorded: much less so; anti-Raf-1 staining (immunofluorescence) (Raf-1 [4]): only observed for the anti-HER2 antibodies; HER2 / HER-kinase expression over time (HER2 [1]; 1 μM, 3 to 24 hours, Western blot and immunohistochemical analysis): reduces HER2 expression with the same kinetics; IGF-I receptor expression over time (IGF-I receptor): does not affect; Raf-1 expression over time (Raf-1 [2]; 1 μM, 3 to 24 hours): does not affect; Estrogen receptor levels over time (estrogen receptor): declined transiently but returned to baseline by 24 hours; amount of HER-2 and Raf-1 as a function of the treatment pattern (HER-2 and Raf-1; 0.25, 0.5 and 1 μM, single or repeated treatments at 0, 3, 6, 12 hours): No significant differences; selectivity on repeated addition (HER-2 and Raf-1; high concentrations added four times in twelve hours): retained selectivity; sensitivity of SKBR3 cells (SKBR3): very sensitive; anti-IGF-IR staining (immunofluorescence) (IGF-IR): only observed for the anti-HER2 antibodies"
COC1C=CC=C(C)C(=O)NC2=CC(=O)C(NCCCCCCCNC3=C4CC(C)CC(OC)C(O)C(C)C=C(C)C(OC(N)=O)C(OC)C=CC=C(C)C(=O)NC(=CC3=O)C4=O)=C(CC(C)CC(OC)C(O)C(C)C=C(C)C1OC(N)=O)C2=O (stereo not drawn) [GMD-7c],600 nM,70 nM,500 nM,,,,
CC(C)C(C)C [GMD-aa],> 2000 nM,> 5000 nM,> 5000 nM,inactive,,inactive,
COC1C=CC=C(C)C(=O)NC2=CC(=O)C(NCCCCCCCCCCCCNC3=C4CC(C)CC(OC)C(O)C(C)C=C(C)C(OC(N)=O)C(OC)C=CC=C(C)C(=O)NC(=CC3=O)C4=O)=C(CC(C)CC(OC)C(O)C(C)C=C(C)C1OC(N)=O)C2=O (stereo not drawn) [twelve carbon-linked compound],700 nM,750 nM,3500 nM,,,,
